Measurements from ChEMBL document CHEMBL3826918, “Recent developments of C-4 substituted coumarin derivatives as anticancer agents” (Eur J Med Chem, 2016).
Blank lines part the entries; values can stand above or below the compound they belong to.

What was measured:
MRC5 = assay: Cytotoxicity against human MRC5 cells assessed as reduction in cell viability measured after 48 hrs by MTT assay; assay type: functional, cell-based; details: MRC5, 48 h
A-375 = assay: Cytotoxicity against human A375 cells assessed as reduction in cell viability measured after 48 hrs by MTT assay; assay type: functional, cell-based; details: A-375, 48 h
[1] = Inhibition of TNF-alpha induced NF-kappaB transcriptional activity in HEK293 cells expressing NF-kappaB-Luc measured after 48 hrs by luciferase assay; assay type: cell-based; details: Homo sapiens, HEK293, 48 h
Steryl-sulfatase [2] = target: T1, Steryl-sulfatase (Homo sapiens, UniProt P08842); assay: Inhibition of sulphatase in human MCF7 cells assessed as inhibition of E1-STS activity; assay type: cell-based
T1 sequence (P08842 whole entry): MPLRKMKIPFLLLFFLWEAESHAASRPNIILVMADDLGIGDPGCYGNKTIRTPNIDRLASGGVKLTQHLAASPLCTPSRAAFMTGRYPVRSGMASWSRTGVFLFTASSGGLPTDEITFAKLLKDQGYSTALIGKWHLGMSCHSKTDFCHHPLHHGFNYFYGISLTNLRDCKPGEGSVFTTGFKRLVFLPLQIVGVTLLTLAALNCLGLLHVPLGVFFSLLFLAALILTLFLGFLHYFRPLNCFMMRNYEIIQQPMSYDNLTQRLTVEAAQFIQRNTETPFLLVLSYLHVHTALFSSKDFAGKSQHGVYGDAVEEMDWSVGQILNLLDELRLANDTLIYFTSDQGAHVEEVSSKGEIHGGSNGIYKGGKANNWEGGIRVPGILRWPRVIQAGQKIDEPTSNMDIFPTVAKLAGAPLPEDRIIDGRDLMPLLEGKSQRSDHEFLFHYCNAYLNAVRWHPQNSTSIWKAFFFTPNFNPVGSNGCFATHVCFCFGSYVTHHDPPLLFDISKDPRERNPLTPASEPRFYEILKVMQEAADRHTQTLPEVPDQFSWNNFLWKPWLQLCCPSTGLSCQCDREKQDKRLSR

[3] = Octanol-water partition coefficient, log P of the compound; assay type: physicochemical
MDA-MB-231 [4] = assay: Cytotoxicity against human MDA-MB-231 cells assessed as reduction in cell viability by MTT assay; assay type: functional, cell-based
MCF7 [5] = assay: Cytotoxicity against human MCF7 cells assessed as reduction in cell viability by MTT assay; assay type: functional, cell-based
[6] = Cytotoxicity against human hTERT-HME1 cells assessed as reduction in cell viability by MTT assay; assay type: functional, cell-based
Aromatase [7] = target: T2, Aromatase (Homo sapiens, UniProt P11511); assay type: cell-based, MCF7
T2 sequence (P11511 whole entry): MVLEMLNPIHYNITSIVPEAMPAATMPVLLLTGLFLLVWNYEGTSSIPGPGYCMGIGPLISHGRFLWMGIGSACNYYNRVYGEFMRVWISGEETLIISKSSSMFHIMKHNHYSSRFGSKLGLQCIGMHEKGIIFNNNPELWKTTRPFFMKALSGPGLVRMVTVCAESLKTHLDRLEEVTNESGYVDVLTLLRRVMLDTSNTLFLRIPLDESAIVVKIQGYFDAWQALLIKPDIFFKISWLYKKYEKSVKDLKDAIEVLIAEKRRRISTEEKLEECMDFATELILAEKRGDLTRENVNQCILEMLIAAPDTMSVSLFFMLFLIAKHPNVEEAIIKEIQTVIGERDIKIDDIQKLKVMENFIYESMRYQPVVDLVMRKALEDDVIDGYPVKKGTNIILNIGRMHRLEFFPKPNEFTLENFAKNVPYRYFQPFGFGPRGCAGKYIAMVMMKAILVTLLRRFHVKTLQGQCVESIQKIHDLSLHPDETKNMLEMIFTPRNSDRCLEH
Description: Inhibition of aromatase in human MCF7 cells using [1beta-3H]androstenedione as substrate measured after 1 hr by liquid scintillation counting method

Steryl-sulfatase [8] = target: T1, Steryl-sulfatase; assay: Inhibition of placental sulphatase (unknown origin)
Aromatase [9] = target: T2, Aromatase
Description: Inhibition of aromatase (unknown origin) preincubated for 10 mins in presence of NADPH generating system followed by addition of dibenzylfluorescein as substrate measured after 30 mins by fluorescence quenching assay

A549 = assay: Antiproliferative activity against human A549 cells over-expressing CK2 assessed as growth inhibition; assay type: functional, cell-based
Casein kinase II = Casein kinase II (Homo sapiens, UniProt P19784+P67870+P68400); assay: Inhibition of recombinant human N-terminal 6His-tagged CK2 expressed in baculovirus infected Sf21 cells in presence of ATP by radiometric assay
MDA-MB-231 [10] = assay: cells; details: Homo sapiens
Description: Antiproliferative activity against human MDA-MB-231 cells

MCF7 [11] = assay: cells; details: Homo sapiens
Description: Antiproliferative activity against human MCF7 cells

[12] = Antiproliferative activity against human PC3 cells; assay type: functional, cell-based; details: PC-3

Sequence of Casein kinase II (P67870 whole entry): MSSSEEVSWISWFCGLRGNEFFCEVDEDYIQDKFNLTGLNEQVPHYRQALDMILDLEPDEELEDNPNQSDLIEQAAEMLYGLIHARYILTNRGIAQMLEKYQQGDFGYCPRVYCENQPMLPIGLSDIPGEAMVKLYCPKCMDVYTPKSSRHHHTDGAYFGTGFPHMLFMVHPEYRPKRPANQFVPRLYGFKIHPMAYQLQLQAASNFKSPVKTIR
Sequence of Casein kinase II (P68400 whole entry): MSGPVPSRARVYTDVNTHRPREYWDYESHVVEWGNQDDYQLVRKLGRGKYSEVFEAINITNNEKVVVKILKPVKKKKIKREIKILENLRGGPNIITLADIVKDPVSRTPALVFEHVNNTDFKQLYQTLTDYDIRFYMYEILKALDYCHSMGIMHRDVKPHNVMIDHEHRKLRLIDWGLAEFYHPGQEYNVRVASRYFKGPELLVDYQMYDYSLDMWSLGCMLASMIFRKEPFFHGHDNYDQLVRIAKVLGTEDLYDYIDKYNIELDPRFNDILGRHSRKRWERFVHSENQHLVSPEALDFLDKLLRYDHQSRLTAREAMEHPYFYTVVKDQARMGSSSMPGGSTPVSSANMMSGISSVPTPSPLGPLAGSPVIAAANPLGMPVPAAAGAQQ
Sequence of Casein kinase II (P19784 whole entry): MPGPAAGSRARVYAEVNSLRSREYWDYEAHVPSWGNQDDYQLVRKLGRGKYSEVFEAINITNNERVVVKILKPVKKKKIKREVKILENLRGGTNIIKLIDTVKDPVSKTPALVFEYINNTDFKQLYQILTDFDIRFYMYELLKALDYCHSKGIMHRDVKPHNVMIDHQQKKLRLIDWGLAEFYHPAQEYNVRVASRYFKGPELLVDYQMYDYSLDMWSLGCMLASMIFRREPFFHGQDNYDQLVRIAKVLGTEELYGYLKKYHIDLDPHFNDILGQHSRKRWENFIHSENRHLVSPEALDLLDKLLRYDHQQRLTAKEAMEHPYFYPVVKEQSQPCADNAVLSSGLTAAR

Compound: O=c1cc(-c2ccccc2)c2ccc(O)c(O)c2o1
IC50 (MRC5): 47 µM
IC50 (A-375): 39 µM

IC50 [1]: 0.11 µM
Compound: COc1cc(C2CC(=O)Oc3cc4c(cc32)OCO4)cc(OC)c1OC (centres undefined)

IC50 (Steryl-sulfatase [2]): 0.38 µM
Compound: Cc1cc(=O)oc2ccc(OS(N)(=O)=O)cc12

logP [3]: 2.17
Compound: COc1cc(C2CC(=O)Oc3cc4c(cc32)OCO4)cc(OC)c1O (centres undefined)

Compound: COc1ccc2c(CSC3=CC(=O)c4ccccc4C3=O)cc(=O)oc2c1
IC50 (MDA-MB-231 [4]): 9.5 µM
IC50 (MCF7 [5]): 11.2 µM
IC50 [6]: 18.1 µM

IC50 (Aromatase [7]): 0.08 µM
Compound: COc1ccc2c(Cc3ccccc3)c(-c3ccc(Cl)cc3)c(=O)oc2c1

IC50 (Steryl-sulfatase [8]): 0.001 µM
Compound: NS(=O)(=O)Oc1ccc2c(c1)OC(=O)C1CCCCCCCCCCC21 (centres undefined)

logP [3]: 2.17
IC50 (Aromatase [9]): 12.1 µM
Compound: COc1cc(C2CC(=O)Oc3cc4c(cc32)OCO4)cc(OC)c1OC(C)=O (centres undefined)

Compound: O=C1C=C(SCc2cc(=O)oc3cc(O)ccc23)C(=O)c2ccccc21
IC50 (MDA-MB-231 [4]): 9.5 µM
IC50 (MCF7 [5]): 11.2 µM
IC50 [6]: 18.1 µM

IC50 (A549): 20.2 µM
IC50 (Casein kinase II): 0.4 µM
Compound: O=c1cc(C(F)(F)F)c2ccc(O)c(Cl)c2o1

IC50 [1]: 0.11 µM
Compound: COc1cc(C2CC(=O)Oc3cc4c(c(OC)c32)OCO4)cc(OC)c1OC (centres undefined)

IC50 (MDA-MB-231 [10]): 18.5 µM
IC50 (MCF7 [11]): 15.4 µM
Compound: O=C(c1ccc(OCCN2CCCCC2)cc1)c1c(-c2ccc(O)cc2)sc2cc(O)ccc12 [RALOXIFENE]
IC50 [12]: > 40 µM

Compound: CC/C(=C(\c1ccccc1)c1ccc(OCCN(C)C)cc1)c1ccccc1 [TAMOXIFEN]
IC50 (MDA-MB-231 [10]): 17.9 µM
IC50 (MCF7 [11]): 13.7 µM
IC50 [12]: > 40 µM
